Values quoted from earlier work, collected in patent US20260183298A1, “VIRAL PROPHYLAXIS TREATMENT METHODS AND PRE-EXPOSURE PROPHYLAXIS KITS” (priority 2022, published 2026).

Assays:
[1] = in vivo
[2] = tested on: HSV-1, HSV-2, HSV-8 (Kaposi's Sarcoma Virus), Vaccinia and Cowpox viruses
[3] = tested on: cytochrome p450
[4] = tested on: EHV; details: about 75% of the horses infected with EHV; all horses treated with valacyclovir

For CC(=O)OCC(CCn1cnc2cnc(N)nc21)COC(C)=O [Famciclovir, famciclovir], the “time to clear through the kidneys” value [1] is given as “less than 24 hours”.

In the case of Cc1cn([C@H]2C[C@H](O)[C@]3(CO)C[C@H]23)c(=O)[nH]c1=O [N-MCT, N-methanocarbathymidine], the antiviral activity [2] is listed as “inhibits” and the “potency relative to reference antivirals” value ([2]; than the antiviral drugs acyclovir, ganciclovir and cidofovir) is listed as “equally or more potent”.

In the case of CC(C)[C@H](N)C(=O)OCCOCn1cnc2c(=O)[nH]c(N)nc21 [Valacyclovir, valacyclovir], the “time to clear through the kidneys” value [1] is listed as “less than 24 hours”, the “metabolism by cytochrome p450” value [3] is listed as “not metabolized by cytochrome p450” and the “progression to severe neurological disease” value [4] is listed as “none progressed to severe neurological disease”. For the same compound, the Renal clearance (following a single 1 g dose) was 255 mL/min, the “Mean Cmax” value (in vivo) was 830 to 5650 ng/mL and the bioavailability (overall) was 54.5%.
